Experimental data: patent publication USRE38257E1, “Piperdine derivatives and hypotensives containing the same” (Ajinomoto Co., Inc., priority 1988, dated 2003)

Test system: male spontaneously hypertensive rats
Assay: Decrease in systolic blood pressure in spontaneously hypertensive rats after intravenous bolus injection, indirect (tail-cuff) method
Assay type: in vivo, rat
Details: for Decrease in systolic blood pressure (mmHg) time after administration (hour) 0.5: 0.5 hour after administration; for Decrease in systolic blood pressure (mmHg) time after administration (hour) 4: 4 hours after administration
Description: As test animals, four male spontaneously hypertensive rats (weight 400 to 440 g) that were sufficiently adapted for feeding and in which hypertension was confirmed were used.
Physiological saline aqueous solution containing 2.5% Nicolle and 2.5% ethanol of sample was intravenously administered by bolus injection at a dose of 1 ml per 1 kg of body weight. Systolic blood pressure after administration was measured by the indirect (tail-cuff) method.

Structure (SMILES) | Decrease in systolic blood pressure (mmHg) time after administration (hour) 0.5 (dose 3 mg/kg i.v. bolus) | Decrease in systolic blood pressure (mmHg) time after administration (hour) 4 (dose 3 mg/kg i.v. bolus) | Decrease in systolic blood pressure (mmHg) time after administration (hour) 0.5 (dose 10 mg/kg i.v. bolus) | Decrease in systolic blood pressure (mmHg) time after administration (hour) 4 (dose 10 mg/kg i.v. bolus)
Cl.Nc1ccc(C=CCN2CCC(=C3c4ccccc4C=Cc4ccccc43)CC2)cc1 [Example 231, 1-(4-Aminocinnamyl)-4-(5H-dibenzo[a,d]cyclohepten-5-ylidene)piperidine hydrochloride] | −132 mmHg | −115 mmHg |  | 
C1=Cc2ccccc2C(=C2CCN(CCCc3ccncc3)CC2)c2ccccc21.Cl.Cl [Example 289, 3-(4-(5H-Dibenzo[a,d]cyclohepten-5-ylidene)-1-piperidinyl)-1-(4-pyridyl)propane dihydrochloride] | −20 mmHg | 10 mmHg |  | 
Cl.Cl.Nc1cccc(CCCN2CCC(=C3c4ccccc4C=Cc4ccccc43)CC2)c1 [Example 315, 1-(3-Aminophenyl)-3-(4-(5H-dibenzo[a,d]cyclohepten-5-ylidene)-1-piperidinyl)propane dihydrochloride] |  |  | −43 mmHg | −3 mmHg
Cl.O=[N+]([O-])c1ccc(CCCN2CCC(=C3c4ccccc4C=Cc4ccccc43)CC2)cc1 [Example 247, 3-(4-(5H-Dibenzo[a,d]cyclohepten-5-ylidene)-1-piperidinyl)-1-(4-notrophenyl)propane hydrochloride] |  |  | −119 mmHg | −40 mmHg
Cl.O=[N+]([O-])c1cccc2c1CC(CN1CCC(=C3c4ccccc4C=Cc4ccccc43)CC1)C2 (stereo not drawn) [Example 329, 2-(4-(5H-Dibenzo[a,d]cyclohepten-5-ylidene)-1-piperidinyl)methyl-4′-nitroindan hydrochloride] |  |  | −34 mmHg | −7 mmHg
C1=Cc2ccccc2C(=C2CCN(Cc3ccc4ccccc4c3)CC2)c2ccccc21.Cl [Example 212, 4-(5H-Dibenzo[a,d]cyclohepten-5-ylidene)-1-(2-naphthylmethyl)piperidine hydrochloride] |  |  | −155 mmHg | 
COc1ccc(C(C#N)(CCCN2CCC(=C3c4ccccc4C=Cc4ccccc43)CC2)C(C)C)cc1OC.Cl (stereo not drawn) [Example 31, 5-(4-(5H-Dibenzo[a,d]cyclohepten-5-ylidene)-1-piperidinyl)-2-(3,4-dimethoxyphenyl)-2-isopropylvaleronitrile hydrochloride] |  |  | −61 mmHg | −11 mmHg
Cl.O=[N+]([O-])c1ccccc1C=CCN1CCC(=C2c3ccccc3C=Cc3ccccc32)CC1 [Example 302, 4-(5H-Dibenzo[a,d]cyclohepten-5-ylidene)-1-(2-nitrocinnamyl)piperidinyl hydrochloride] |  |  | −83 mmHg | −41 mmHg
Cc1ccc(CN2CCC(=C3c4ccccc4C=Cc4ccccc43)CC2)cc1.Cl [Example 133, 4-(5H-Dibenzo[a,d]cyclohepten-5-ylidene)-1-(4-methylbenyl)piperidine hydrochloride] | −146 mmHg | −84 mmHg |  | 
C1=Cc2ccccc2C(=C2CCN(CCCCCCCCC3CCCCC3)CC2)c2ccccc21.Cl [Example 156, 1-Cyclohexyl-8-(4-(5H-dibenzo[a,d]cyclohepten-5-ylidene)-1-piperidinyl)octane hydrochloride] |  |  | −110 mmHg | −42 mmHg
Cl.Cl.Nc1ccc(CCCCN2CCC(=C3c4ccccc4C=Cc4ccccc43)CC2)cc1 [Example 195, 1-(4-(4-Aminophenyl)butyl)-4-(5H-dibenzo[a,d]cyclohepten-5-ylidine)piperidine dihydrochloride] |  |  | −100 mmHg | −51 mmHg
